Results: patent US20100190794A1, “Herbicidally Active Composition” (BASF SE, priority 2007, published 2010)

Legend:
[1] = test system: PHACA; assay: greenhouse test, pre-emergence treatment; assay type: in vivo, Phalaris canariensis
Source text: (§1) The culture containers used were plastic pots containing loamy sand with approximately 3.0% of humus as substrate. The seeds of the test plants were sown separately for each species.
(§2) For the pre-emergence treatment, the active compounds, suspended or emulsified in water, were applied directly after sowing by means of finely distributing nozzles. The containers were irrigated gently to promote germination and growth and subsequently covered with transparent plastic hoods until the plants had rooted. This cover caused uniform germination of the test plants unless this was adversely affected by the active compounds.
(§3) Depending on the species, the plants were kept at 10-25° C. and 20-35° C., respectively. The test period extended over 2 to 4 weeks. During this time, the plants were tended and their response to the individual treatments was evaluated.
(§4) Evaluation was carried out using a scale from 0 to 100. 100 means no emergence of the plants, or complete destruction of at least the above-ground parts, and 0 means no damage or normal course of growth. Good herbicidal activity is given at values of at least 70, and very good herbicidal activity is given at values of at least 85.
(§5) The respective stated components A and B, and if appropriate, C were formulated as a 5% by weight or 10% by weight strength emulsion concentrate or a commercially available formulation of component B was used and, with addition of the amount of solvent system, introduced into the spray liquor used for applying the active compound. In the examples, the solvent used was water.
(§6) The test period extended over 20 or 21 days. During this time, the plants were tended, and their reactions to the treatment with active compound was monitored.
(§7) What was evaluated was the damage by the chemical compositions using a scale of from 0 to 100%, in comparison to the untreated control plants. 0 means no damage, and 100 means complete destruction of the plants.
(§8) In the examples below, using the method of S. R. Colby (1967) “Calculating synergistic and antagonistic responses of herbicide combinations”, Weeds 15, p. 22 ff., the value E, which is expected if the activity of the individual active compounds is only additive, was calculated.
(§9) where X=percent activity using active compound A at an application rate a; Y=percent activity using active compound B at an application rate b; E=expected activity (in %) by A+B at application rates a+b.
(§10) If the value found in experiments is higher than the value E calculated according to Colby, a synergistic effect is present.

[2] = test system: LOLMU; assay: greenhouse test, post-emergence treatment; assay type: in vivo, Lolium multiflorum; conditions: Use Example 17
Protocol: as §1
For the post-emergence treatment, the test plants were grown to a plant height of from 3 to 15 cm, depending on the plant habit, and only then treated with the active compounds which had been suspended or emulsified in water. To this end, the test plants were either sown directly and grown in the same containers, or they were first grown separately as seedlings and transplanted into the test containers a few days prior to treatment.
as §3, §4, §5, §6, §7, §8, §9, §10

[3] = test system: SETFA; assay: greenhouse test, pre-emergence treatment; assay type: in vivo, Setaria faberi
Source text: as §1, §2, §3, §4, §5, §6, §7, §8, §9, §10

[4] = test system: PANDI; assay: greenhouse test, pre-emergence treatment; assay type: in vivo, Panicum dichotomiflorum; conditions: 62.5 g/ha a.s., Use Example 3
Source text: as §1, §2, §3
as §4, with “85. […]” for “85.”
as §6
(§11) What was evaluated was the damage by the chemical compositions using a scale of from 0 to 100%, in comparison to the untreated control plants. […]
(§12) In the examples below, using the method of S. R. Colby (1967) “Calculating synergistic and antagonistic responses of herbicide combinations”, Weeds 15, p. 22 ff., the value E, which is expected if the activity of the individual active compounds is only additive, was calculated. […]
as §10

[5] = test system: ALOMY; assay: greenhouse test, pre-emergence treatment; assay type: in vivo, Alopecurus myosuroides
Source text: as §1, §2, §3, §4, §5, §6, §7, §8, §9, §10

[6] = test system: AVEFA; assay: greenhouse test, pre-emergence treatment; assay type: in vivo, Avena fatua; conditions: Use Example 6
Source text: as §1, §2, §3
as §4, with “85. […]” for “85.”
as §6, §11, §12, §10

[7] = test system: LOLMU; assay: greenhouse test, pre-emergence treatment; assay type: in vivo, Lolium multiflorum
Source text: as §1, §2, §3, §4, §5, §6, §7, §8, §9, §10

[8] = test system: BRAPL; assay: greenhouse test, pre-emergence treatment; assay type: in vivo, Brachiaria plantaginea
Source text: as §1, §2, §3, §4, §5, §6, §7, §8, §9, §10

CN1C(=O)C(C)(Cc2ccccc2)N(C)C(=O)C1=Cc1ccccc1C#N (stereo not drawn) [Example 20, 2-[5-Benzyl-1,4,5-trimethyl-3,6-dioxopiperazin-2-ylidenemethyl]benzo-nitrile]
Herbicidal action in % after 20 days against PHACA ([1]; 250 g/ha a.s., Use Example 4): 80% | Herbicidal action in % after 20 days against PHACA ([1]; 500 g/ha a.s., Use Example 1): 80% | Herbicidal action in % after 20 days against LOLMU ([2]; 125 g/ha a.s.): 15% | Herbicidal action in % after 20 days against LOLMU ([2]; 250 g/ha a.s.): 35% | Herbicidal action in % after 20 days against SETFA ([3]; 125 g/ha a.s., Use Example 12): 45% | Herbicidal action in % after 20 days against SETFA ([3]; 125 g/ha a.s., Use Example 14): 95% | Herbicidal action in % after 20 days against SETFA ([3]; 250 g/ha a.s., Use Example 12): 80% | Herbicidal action in % after 21 days against PANDI [4]: 95% | Herbicidal action in % after 20 days against ALOMY ([5]; 62.5 g/ha a.s., Use Example 2): 45% | Herbicidal action in % after 20 days against ALOMY ([5]; 125 g/ha a.s., Use Example 2): 55% | Herbicidal action in % after 20 days against ALOMY ([5]; 125 g/ha a.s., Use Example 7): 40% | Herbicidal action in % after 20 days against ALOMY ([5]; 125 g/ha a.s., Use Example 10): 45% | Herbicidal action in % after 20 days against ALOMY ([5]; 125 g/ha a.s., Use Example 13): 45% | Herbicidal action in % after 20 days against ALOMY ([5]; 125 g/ha a.s., Use Example 15): 40% | Herbicidal action in % after 20 days against ALOMY ([5]; 250 g/ha a.s., Use Example 2): 85% | Herbicidal action in % after 20 days against ALOMY ([5]; 250 g/ha a.s., Use Example 4): 85% | Herbicidal action in % after 20 days against ALOMY ([5]; 250 g/ha a.s., Use Example 7): 90% | Herbicidal action in % after 20 days against ALOMY ([5]; 250 g/ha a.s., Use Example 10): 70% | Herbicidal action in % after 20 days against ALOMY ([5]; 250 g/ha a.s., Use Example 13): 70% | Herbicidal action in % after 20 days against ALOMY ([5]; 250 g/ha a.s., Use Example 15): 90% | Herbicidal action in % after 20 days against AVEFA ([6]; 250 g/ha a.s.): 20% | Herbicidal action in % after 20 days against AVEFA ([6]; 500 g/ha a.s.): 40% | Herbicidal action in % after 20 days against LOLMU ([7]; 125 g/ha a.s., Use Example 10): 0% | Herbicidal action in % after 21 days against LOLMU ([7]; 125 g/ha a.s., Use Example 11): 0% | Herbicidal action in % after 20 days against LOLMU ([7]; 125 g/ha a.s., Use Example 13): 0% | Herbicidal action in % after 20 days against LOLMU ([7]; 250 g/ha a.s., Use Example 10): 45% | Herbicidal action in % after 20 days against LOLMU ([7]; 250 g/ha a.s., Use Example 13): 45% | Herbicidal action in % after 20 days against LOLMU ([7]; 500 g/ha a.s., Use Example 1): 70% | Herbicidal action in % after 21 days against BRAPL ([8]; 31.25 g/ha a.s., Use Example 8): 20% | Herbicidal action in % after 20 days against BRAPL ([8]; 125 g/ha a.s., Use Example 5): 70% | Herbicidal action in % after 21 days against BRAPL ([8]; 125 g/ha a.s., Use Example 9): 80% | Herbicidal action in % after 20 days against BRAPL ([8]; 125 g/ha a.s., Use Example 12): 55% | Herbicidal action in % after 20 days against BRAPL ([8]; 250 g/ha a.s., Use Example 5): 85% | Herbicidal action in % after 21 days against BRAPL ([8]; 250 g/ha a.s., Use Example 9): 95% | Herbicidal action in % after 20 days against BRAPL ([8]; 250 g/ha a.s., Use Example 12): 55% | Herbicidal action in % after 20 days against BRAPL ([8]; 250 g/ha a.s., Use Example 16): 85%
